In experiment [1] the test system is ADP-induced human platelet aggregation. Nature of the experiment: PRP assay: inhibition of ADP-mediated platelet aggregation in vitro. The experiment is classed as cell-based. As to conditions: IC50 class. On the procedure:
I. Inhibition of ADP-Mediated Platelet Aggregation in vitro
The effect of testing the compound according to the invention on ADP-induced human platelet aggregation is preferably assessed in 96-well microtiter assay (see generally the procedures in Jantzen, H. M. et al. (1999) Thromb. Hemost. 81:111–117). Human venous blood is collected from healthy, drug-free volunteers into ACD (85 mM sodium citrate, 111 mM glucose, 71.4 mM citric acid) containing PGI2 (1.25 ml ACD containing 1.6 μM PGI2/10 ml blood; PGI2 was from Sigma, St. Louis, Mo.). Platelet-rich plasma (PRP) is prepared by centrifugation at 160×g for 20 minutes at room temperature. Washed platelets are prepared by centrifuging PRP for 10 minutes at 730×g and resuspending the platelet pellet in CGS (13 mM sodium citrate, 30 mM glucose, 120 mM NaCl; 2 ml CGS/10 ml original blood volume) containing 1 U/ml apyrase (grade V, Sigma, St. Louis, Mo.). After incubation at 37° C. for 15 minutes, the platelets are collected by centrifugation at 730×g for 10 minutes and resuspended at a concentration of 3×10^8 platelets/ml in Hepes-Tyrode's buffer (10 mM Hepes, 138 mM NaCl, 5.5 mM glucose, 2.9 mM KCl, 12 mM NaHCO3, pH 7.4) containing 0.1% bovine serum albumin, 1 mM CaCl2 and 1 mM MgCl2. This platelet suspension is kept >45 minutes at 37° C. before use in aggregation assays.
Inhibition of ADP-dependent aggregation is preferably determined in 96-well flat-bottom microtiter plates using a microtiter plate shaker and plate reader similar to the procedure described by Frantantoni et al., Am. J. Clin. Pathol. 94, 613 (1990). All steps are performed at room temperature. The total reaction volume of 0.2 ml/well includes in Hepes-Tyrodes buffer/0.1% BSA: 4.5×10^7 apyrase-washed platelets, 0.5 mg/ml human fibrinogen (American Diagnostica, Inc., Greenwich, Conn.), serial dilutions of test compounds (buffer for control wells) in 0.6% DMSO. After about 5 minutes preincubation at room temperature, ADP is added to a final concentration of 2 μM which induces submaximal aggregation. Buffer is added instead of ADP to one set of control wells (ADP^− control). The OD of the samples is then determined at 490 nm using a microtiter plate reader (Softmax, Molecular Devices, Menlo Park, Calif.) resulting in the 0 minute reading. The plates are then agitated for 5 min on a microtiter plate shaker and the 5 minute reading is obtained in the plate reader. Aggregation is calculated from the decrease of OD at 490 nm at t=5 minutes compared to t=0 minutes and is expressed as % of the decrease in the ADP control samples after correcting for changes in the unaggregated control samples.

The target of the next experiment is T1, platelet ADP receptors (Homo sapiens, UniProt Q9H244).
T1 construct: endogenous in cells; host or cells: whole apyrase-washed human platelets (outdated from blood banks, or fresh)
Nature of the experiment: ARB assay: inhibition of [3H]2-MeS-ADP binding to platelets. As to conditions: IC50 class, [3H]2-MeS-ADP binding to whole human platelets. As to the method:
II. Inhibition of [^3H]2-MeS-ADP Binding to Platelets
Utilizing the second assay the potency of inhibition of such compounds with respect to [^3H]2-MeS-ADP binding to whole platelets is determined. [^3H]2-MeS-ADP binding experiments are routinely performed with outdated human platelets collected by standard procedures at hospital blood banks. Apyrase-washed outdated platelets are prepared as follows (all steps at room temperature, if not indicated otherwise):
Outdated platelet suspensions are diluted with 1 volume of CGS and platelets pelleted by centrifugation at 1900×g for 45 minutes. Platelet pellets are resuspended at 3-6×10^9 platelets/ml in CGS containing 1 U/ml apyrase (grade V, Sigma, St. Louis, Mo.) and incubated for 15 minutes at 37° C. After centrifugation at 730×g for 20 minutes, pellets are resuspended in Hepes-Tyrode's buffer containing 0.1% BSA (Sigma, St. Louis, Mo.) at a concentration of 6.66×10^8 platelets/ml. Binding experiments are performed after >45 minutes resting of the platelets.
Alternatively, binding experiments are performed with fresh human platelets prepared as described in I. (Inhibition of ADP-Mediated Platelet Aggregation in vitro), except that platelets are resuspended in Hepes-Tyrode's buffer containing 0.1% BSA (Sigma, St. Louis, Mo.) at a concentration of 6.66×10^8 platelets/ml. Very similar results are obtained with fresh and outdated platelets.
A platelet ADP receptor binding assay using the tritiated potent agonist ligand [^3H]2-MeS-ADP (Jantzen, H. M. et al. (1999) Thromb. Hemost. 81:111–117) has been adapted to the 96-well microtiter format. In an assay volume of 0.2 ml Hepes-Tyrode's buffer with 0.1% BSA and 0.6% DMSO, 1×10^8 apyrase-washed platelets are preincubated in 96-well flat bottom microtiter plates for 5 minutes with serial dilutions of test compounds before addition of 1 nM [^3H]2-MeS-ADP ([^3H]2-methylthioadenosine-5′-diphosphate, ammonium salt; specific activity 48–49 Ci/mmole, obtained by custom synthesis from Amersham Life Science, Inc., Arlington Heights, Ill., or NEN Life Science Products, Boston, Mass.). Total binding is determined in the absence of test compounds. Samples for nonspecific binding may contain 10^−5 M unlabelled 2-MeS-ADP (RBI, Natick, Mass.). After incubation for 15 minutes at room temperature, unbound radioligand is separated by rapid filtration and two washes with cold (4–8° C.) Binding Wash Buffer (10 mM Hepes pH 7.4, 138 mM NaCl) using a 96-well cell harvester (Minidisc 96, Skatron Instruments, Sterling, Va.) and 8×12 GF/C glassfiber filtermats (Printed Filtermat A, for 1450 Microbeta, Wallac Inc., Gaithersburg, Md.). The platelet-bound radioactivity on the filtermats is determined in a scintillation counter (Microbeta 1450, Wallac Inc., Gaithersburg, Md.). Specific binding is determined by […] binding, and specific binding in the presence of test compounds is expressed as % of specific binding in the absence of test compounds dilutions.

Where only a bound is given, the exact number is not on record here.

In patent US7205296B2, “Substituted 2H-1,3-benzoxazin-4(3H)-ones” (Portola Pharmaceuticals, Inc., priority 2004, dated 2007) one finds IC50 data, which are given here for 3 compounds.

For orientation: IC50 means the concentration that inhibits the measured activity by half. A higher IC50 goes with lower potency.

T1 sequence (Q9H244 whole entry): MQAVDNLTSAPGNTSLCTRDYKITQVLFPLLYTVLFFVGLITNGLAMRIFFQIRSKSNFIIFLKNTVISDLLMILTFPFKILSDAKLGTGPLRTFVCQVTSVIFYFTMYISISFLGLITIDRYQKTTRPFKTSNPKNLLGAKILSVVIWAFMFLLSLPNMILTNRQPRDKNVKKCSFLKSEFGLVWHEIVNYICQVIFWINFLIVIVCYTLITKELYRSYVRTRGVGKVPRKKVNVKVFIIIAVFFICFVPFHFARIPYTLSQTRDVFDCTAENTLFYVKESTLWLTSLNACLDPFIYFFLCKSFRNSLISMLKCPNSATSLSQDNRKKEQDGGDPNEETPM

`CNc1cc2c(cc1Cl)C(=O)N(c1ccc(NC(=O)NS(=O)(=O)c3ccc(Cl)s3)cc1)CO2` [Example 51, 1-(5-chlorothiophen-2-ylsulfonyl)-3-(4-(6-chloro-7-(methylamino)-4-oxo-2H-benzo[e][1,3]oxazin-3(4H)-yl)phenyl)urea]: the results for the IC50 (in experiment [1]; on platelet ADP receptors) were above 30 µM and below 0.05 µM, respectively.

As for `CNc1cc2c(cc1F)C(=O)N(c1ccc(C(=O)NS(=O)(=O)c3ccc(Cl)s3)cc1)CO2` [Example 56, N-(5-chlorothiophen-2-ylsulfonyl)-4-(6-fluoro-7-(methylamino) -4-oxo-2H-benzo[e] [1,3]oxazin-3(4H)-yl) benzamide], the half-maximal inhibitory concentration (IC50) was below 10 µM in experiment [1] and below 0.05 µM at platelet ADP receptors.

In the case of `CNc1cc2c(cc1F)C(=O)N(c1ccc(C(=O)NS(=O)(=O)c3ccc(Cl)s3)c(F)c1)CO2` [Example 57, N-(5-chlorothiophen-2-ylsulfonyl)-2-fluoro-4-(6-fluoro-7-(methylamino)-4-oxo-2H-benzo[e][1,3]oxazin-3(4H)-yl) benzamide], the IC50 in experiment [1] was above 30 µM; at platelet ADP receptors it was below 0.05 µM.
